Experimental findings from patent US6794544B2, “Method for the preparation of tetrahydrobenzothiepines” (Pharmacia Corporation, priority 2000, dated 2004) are described below.

This data set in a line: Water uptake experiments (Dynamic Vapor Sorption, water sorption/desorption isotherms). The format is physicochemical. The method, then:
A dry sample of the crystalline form having a melting point or a decomposition point of about 278° C. to about 285° C. (i.e., Form 11) typically gains less than about 1% of its own weight when equilibrated under 80% relative humidity (RH) air at 25° C. […] For the present purposes, the term “essentially 0% RH” means less than about 1% RH. The term “equilibrated” means that the change in weight of a sample over time at a given relative humidity is less than 0.0003% ((dm/dt)/m0×100, where m is mass in mg, m0 is initial mass, and t is time in minutes).
Water sorption experiments are performed on a Dynamic Vapor Sorption (DVS) apparatus (DVS-1000 manufactured by Surface Measurements Systems, Inc.). Experiments are performed at 25° C. by initially drying the material of interest (about 10 mg sample) from 30% relative humidity (RH) (ambient room condition) to about 9% RH in a stepwise fashion (10% RH step) by purging with dry nitrogen until no further weight change was observed. The samples are then exposed to a stepwise (10% RH steps) increase in RH from about 0 to about 90% RH. Each successive step is initiated when the change in weight over time at the relative humidity was less than 0.0003% ((dm/dt)/m0×100, where m is mass in mg, m0 is initial mass, and t is time in minutes). […] The data are collected on a computer and analyzed using SMS′ proprietary MS-Excel macro interface software.

For `CCCCC1(CCCC)CS(=O)(=O)c2ccc(N(C)C)cc2[C@@H](c2ccc(OCc3ccc(C[N+]45CCN(CC4)CC5)cc3)cc2)[C@H]1O` [Form II, (4R,5R)-1-((4-(4-(3,3-dibutyl-7-(dimethylamino)-2,3,4,5-tetrahydro-4-hydroxy-1,1-dioxido-1-benzithiepin-5-yl)phenoxy)methyl)phenyl)methyl-4-aza-1-azoniabicyclo[2.2.2]octane chloride], the “weight gain of the sample (of its own weight)” value (dried at essentially 0% RH at about 25° C. under dry nitrogen, then equilibrated under about 80% RH air at about 25° C.) was “less than 1%”. Further, the hygroscopicity result (dry sample equilibrated under 80% RH air at 25° C.) is on record as “essentially nonhygroscopic”.
